# Test system: P12-Ichikawa
# Experiment: cell viability relative to DMSO control; higher = less cytotoxic
# Conditions: 48 h
# How it was run: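 Viability was expressed as a per-plate percentage of DMSO wells, with cell-free wells as background. Leukemia cells (NOMO1 or SEM at 500 cells/well, P12-Ichikawa at 1000 cells/well) were adapted for at least four passages in each medium and seeded in 1536-well plates (5 μl). Library compounds in DMSO were pin-dosed over an 11-point threefold series from 47 μM to 0.79 nM, and CellTiter-Glo One luminescence was read after 48 h at 37°C.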
# [1] = HPLM + 10% dialyzed FBS, 0.000781 µM
# [2] = HPLM + 10% dialyzed FBS, 0.00234 µM
# [3] = HPLM + 10% dialyzed FBS, 0.00702 µM
# [4] = HPLM + 10% dialyzed FBS, 0.0211 µM
# [5] = HPLM + 10% dialyzed FBS, 0.0632 µM
# [6] = HPLM + 10% dialyzed FBS, 0.19 µM
# [7] = HPLM + 10% dialyzed FBS, 0.569 µM
# [8] = HPLM + 10% dialyzed FBS, 1.71 µM
# [9] = HPLM + 10% dialyzed FBS, 5.12 µM
# [10] = HPLM + 10% dialyzed FBS, 15.4 µM
# [11] = HPLM + 10% dialyzed FBS, 46.1 µM
# [12] = RPMI 5 mM glucose + 10% FBS, 0.000781 µM
# [13] = RPMI 5 mM glucose + 10% FBS, 0.00234 µM
# [14] = RPMI 5 mM glucose + 10% FBS, 0.00702 µM
# [15] = RPMI 5 mM glucose + 10% FBS, 0.0211 µM
# [16] = RPMI 5 mM glucose + 10% FBS, 0.0632 µM
# [17] = RPMI 5 mM glucose + 10% FBS, 0.19 µM
# [18] = RPMI 5 mM glucose + 10% FBS, 0.569 µM
# [19] = RPMI 5 mM glucose + 10% FBS, 1.71 µM
# [20] = RPMI 5 mM glucose + 10% FBS, 5.12 µM
# [21] = RPMI 5 mM glucose + 10% FBS, 15.4 µM
# [22] = RPMI 5 mM glucose + 10% FBS, 46.1 µM
# [23] = RPMI 5 mM glucose + 10% dialyzed FBS, 0.000781 µM
# [24] = RPMI 5 mM glucose + 10% dialyzed FBS, 0.00234 µM
# [25] = RPMI 5 mM glucose + 10% dialyzed FBS, 0.00702 µM
# [26] = RPMI 5 mM glucose + 10% dialyzed FBS, 0.0211 µM
# [27] = RPMI 5 mM glucose + 10% dialyzed FBS, 0.0632 µM
# [28] = RPMI 5 mM glucose + 10% dialyzed FBS, 0.19 µM
# [29] = RPMI 5 mM glucose + 10% dialyzed FBS, 0.569 µM
# [30] = RPMI 5 mM glucose + 10% dialyzed FBS, 1.71 µM
# [31] = RPMI 5 mM glucose + 10% dialyzed FBS, 5.12 µM
# [32] = RPMI 5 mM glucose + 10% dialyzed FBS, 15.4 µM
# [33] = RPMI 5 mM glucose + 10% dialyzed FBS, 46.1 µM
Compound,cell viability [1] [%],cell viability [2] [%],cell viability [3] [%],cell viability [4] [%],cell viability [5] [%],cell viability [6] [%],cell viability [7] [%],cell viability [8] [%],cell viability [9] [%],cell viability [10] [%],cell viability [11] [%],cell viability [12] [%],cell viability [13] [%],cell viability [14] [%],cell viability [15] [%],cell viability [16] [%],cell viability [17] [%],cell viability [18] [%],cell viability [19] [%],cell viability [20] [%],cell viability [21] [%],cell viability [22] [%],cell viability [23] [%],cell viability [24] [%],cell viability [25] [%],cell viability [26] [%],cell viability [27] [%],cell viability [28] [%],cell viability [29] [%],cell viability [30] [%],cell viability [31] [%],cell viability [32] [%],cell viability [33] [%]
COC1=CC=C(C=C1)C/2=C/OC3=CC(=CC=C3C2=O)O,122,116,114,112,124,111,115,102,106,104,96.7,120,120,115,120,121,112,118,111,113,114,103,116,111,115,118,108,105,117,104,108,96.2,101
OC1=C(C=CC=C1)C2=CC=C(C=C2)C3=CSC4=C3C(=C(/C#N)C(=O)N4)/O,124,127,124,124,119,119,112,116,114,111,110,,,,,,,,,,,,,,,,,,,,,,
CCc1cc(/C(C)=N/OCc2ccc(C3CCCCC3)c(C(F)(F)F)c2)ccc1CN1CC(C(=O)O)C1,111,110,112,119,120,114,121,108,105,30.3,18.9,109,99,105,108,110,106,108,107,94.4,22.5,18.7,111,111,116,109,109,116,114,106,100,20.7,18.6
CCOP(=O)(OCC)C(C)NC(=O)N(CCCl)N=O (stereo not drawn),122,116,132,119,124,130,123,123,128,130,141,,,,,,,,,,,,,,,,,,,,,,
CC1=CC2=C(O1)C(=C3OC(=O)\C=C(C)/C3=C2)C,105,116,113,109,113,111,117,111,108,102,99.6,89.6,107,105,106,103,107,118,106,107,102,96.8,102,112,110,111,113,115,110,115,104,105,86.8
CC1=C(C)C2=C(S1)[N]3C(=NN=C3[C@H](CC(=O)OC(C)(C)C)/N=C2/C4=CC=C(Cl)C=C4)C,98.4,98.2,97.1,100,92.7,79.5,39.4,57.7,35.1,15.4,6.39,97.6,90.6,91.5,97.6,85.8,81.1,43,52.4,37.1,22.4,13.6,92.2,92.2,87.8,95,90.6,78.9,39.9,50.4,40.1,17.3,7.9
C[C@H]1[C@@H](CC(C[C@H]2O[C@@H]3O[C@]4(C)CC[C@H]5[C@H](C)CC[C@@H]([C@H]2C)[C@@]35OO4)C[S+](=O)([O-])c2ccc(COC(=O)N(C)C)cc2)O[C@@H]2O[C@]3(C)CC[C@H]4[C@H](C)CC[C@@H]1[C@@]24OO3,114,111,103,117,110,102,85.5,55.5,49.7,39,13.8,114,122,113,122,113,116,81.7,52,53.2,33.5,21.8,118,110,107,110,103,106,50.7,41.7,36.9,39.7,35
N#Cc1c(C2CCNCC2)cc(-c2c(O)cccc2OCC2CC2)nc1N,113,113,112,110,108,108,106,107,101,106,92,116,125,123,117,109,97.2,108,105,105,106,91.3,114,116,119,126,105,114,111,107,107,99.7,85.9
NC/1=N/C(=O)N(/C=C1)[C@H]2CC[C@@H](CO)O2,85,95.4,93.5,101,95.9,102,96.1,106,95.5,104,37.6,88.3,87.6,88.6,94,102,91.1,99.6,92.2,94.3,90.9,41.8,59.6,87.9,88.1,90.3,85.1,90.4,96.6,93.9,98.2,90.9,30

# From the supplement of paper PMC11451515
